Test results from US11230586B2, “Exosome production method” (TOAGOSEI CO., LTD., priority 2019, dated 2022).
Ends that are not written are not given here.

What was measured:
HeLa cells [1] = test: Calculation of number of exosomes in exosome fractions from treated HeLa cells (NanoSight LM10); format: cell-based, human
Description: (§1) More specifically, a currently commercially available human cervical cancer cell line (HeLa cells) was used as the test cultured cells.
(§2) α-MEM medium containing 10% FBS (product of Gibco) was used to culture the HeLa cells. Furthermore, FBS free of native exosomes derived from animal serum was used for the FBS.
(§3) A suitable amount of medium containing FBS at a concentration of 10% was placed in cell culture dishes having a diameter of 100 mm followed by seeding with HeLa cells so that the number of cells per dish was about 2×10^6 cells.
(§4) Next, the cells were cultured in a-MEM medium containing 10% FBS having the sample peptide suspended therein at a concentration of 5 μM under conditions of 5% CO2 at 37° C. for 48 hours.
Subsequently, the culture broth was obtained and subjected to ultracentrifugation to isolate and recover the exosomes. More specifically, centrifugation was carried out continuously as described below under conditions of 4° C. […]
The number of exosomes was calculated for each of the three exosome fractions produced as described above. More specifically, the numbers of exosome particles in the exosome fractions were counted followed by calculating the number of exosomes using NanoSight LM10 (Malvern Panalytical Ltd.).

HeLa cells [2] = test: Measurement of amount of protein per exosome particle (BCA assay, equation (1)); format: cell-based, human
Description: More specifically, the analyzing step preferably includes, for example, measurement of the total of amount of protein P (μg/mL) contained in the exosome fraction. A conventionally known method (such as BCA assay) can be used without any particular limitations to measure the amount of proteins. As a result, the average amount of protein per exosome, EP (μg), can be calculated based on the following equation (1). […]
as §1, §2, §3, §4
Subsequently, the culture broth was obtained and subjected to ultracentrifugation to isolate and recover the exosomes. […]
The amount of protein was measured for each of the three exosome fractions produced as described above. […]

FIGNLALSDLLAGVAYTANLLLKKRTLRKNDRKKR-CONH2 (FIGNLALSDLLAGVAYTANLLLKKRTLRKNDRKKR-NH2) [Example]
Exosome concentration (HeLa cells [1]; HeLa cells cultured 48 hours with 5 μM test substance, exosome fraction by ultracentrifugation, suspended in PBS): 8.31e+08 mL⁻¹ | number of exosomes (change, in words) (HeLa cells [1]; HeLa cells, 5 μM, 48 hours, versus Comparative Examples): increase considerably | Amount of protein (HeLa cells [2]; HeLa cells cultured 48 hours with 5 μM test substance, total protein by BCA divided by particle number): 5.9 ×10^−8 μg/exosome | amount of proteins in the exosomes (change, in words) (HeLa cells [2]; HeLa cells, 5 μM, 48 hours, in comparison with Comparative Example 1 and Comparative Example 2): decreased considerably
